System: biochemically recurrent prostate cancer
Test: CONDOR: 18F-DCFPyL PET/CT correct localization rate, detection rate and PPV vs composite standard of truth
Format: in vivo, men
Conditions: for PPV % (95% CI): patient level
From the text: 1. Correct Localization Rate (CLR), defined as percentage of subjects with a one-to-one correspondence between localization of at least one lesion identified on ^18F-DCFPyL PET/CT imaging and the composite truth standard, defined as either evaluable histopathology, informative correlative imaging, or PSA response after radiation therapy.
Men ≥18 years of age with a rising PSA after definitive PCa therapy and negative or equivocal imaging were enrolled. […] The primary endpoint of this study was the correct localization rate (CLR). CLR is defined as the percentage of patients with a one-to-one correspondence between localization of at least one lesion identified by ^18F-DCFPyL PET/CT and a composite standard of truth (SOT). SOT was determined by two central readers and included either histopathology or another standard imaging modality (i.e., fluciclovine-PET/CT, CT/MRI, bone scan) or alternatively, by a post-treatment PSA change for irradiated lesions.
Methods: Men ≥18 years—with rising PSA after definitive therapy and negative or equivocal standard of care imaging (e.g., CT/MRI, bone scintigraphy) were enrolled. A single 9 mCi (333 MBq)±20% dose of PyL was injected, followed by PET/CT 1-2 hours later. Primary endpoint was correct localization rate (CLR), defined as percentage of pts with a 1:1 correspondence between at least one lesion identified by PyL-PET/CT and the composite standard of truth: pathology, correlative imaging, or PSA response. […] The secondary endpoint, impact of PyL-PET/CT on clinical management of pts was based on the treating physician's documented clinical plans before and after PyL-PET/CT.
Men with a PSA ≥0.2 ng/mL after surgery or ≥2 ng/mL above the nadir after radiation therapy were eligible for enrollment. The primary endpoint was the correct localization rate (CLR) defined as positive predictive value with an additional requirement of anatomical lesion colocalization between ^18F-DCFPyL-PET/CT and a composite standard of truth (SOT). The SOT consisted of, in descending priority: 1) histopathology, 2) correlative imaging findings determined by two central readers, or 3) post-radiation PSA response. […] The impact of ^18F-DCFPyL-PET/CT as defined by change in management intent, and safety were evaluated as secondary endpoints.
Patients voided prior to imaging, and PET and non-contrast CT images were acquired from the mid-thigh through the skull vertex. All ^18F-DCFPyL-PET/CT scans were submitted to the central imaging core laboratory for assessment. Patients with positive ^18F-DCFPyL-PET/CT scans based on local interpretation were scheduled for post-^18F-DCFPyL-PET/CT follow-up to verify suspected lesion(s) based on a composite standard of truth (SOT). (FIG. 16)
Because of the expected absence of an amenable lesion for histologic verification in all patients, a composite SOT was employed based on assessment performed or initiated within 60 days following ^18F-DCFPyL-PET/CT. These reference standards were defined (in descending priority) as (1) evaluable histopathology results from prostatectomy, salvage pelvic lymph node dissection or biopsy; (2) imaging findings using ^18F-fluciclovine or ^11C-choline PET, or focused MRI or CT; or (3) if neither of the above was available or informative, confirmed PSA response up to 9 months post-radiation initiation (with no concomitant ADT) of all PET-positive foci. PSA response was defined as PSA decline by ≥50% from baseline that was confirmed on repeat measurement within 4 weeks, based on central laboratory results.
A central imaging core laboratory was employed to independently manage image handling, reader training, reader sessions and data collection. […] The readers had no access to any clinical information, including PSA values or other imaging available for a patient. […]

[1] = SOT Correlative imaging n=100, Reader 3
[2] = SOT Histopathology n=31, Reader 1
[3] = SOT Histopathology n=31, Reader 2
[4] = SOT Histopathology n=31, Reader 3
[5] = SOT PET-Fluciclovine n=71, Reader 1
[6] = SOT PET-Fluciclovine n=71, Reader 2
[7] = SOT PET-Fluciclovine n=71, Reader 3

## O=C(O)CC[C@H](NC(=O)N[C@@H](CCCCNC(=O)c1ccc([18F])nc1)C(=O)O)C(=O)O [18F-DCFPyL, 2-(3-{1-carboxy-5-[(6-[^18F]fluoro-pyridine-3-carbonyl)-amino]-pentyl}ureido)-pentanedioic acid]
[1]
  CLR (TP/TP + FP): (86.1%)
  Negative PyL Scan: (23.0%)
  PPV (TP/TP + FP): (87.0%)
  Positive PyL Scan: (77.0%)
[2]
  CLR (TP/TP + FP): (78.6%)
  Negative PyL Scan: (6.5%)
  PPV (TP/TP + FP): (93.1%)
  Positive PyL Scan: (93.5%)
[3]
  CLR (TP/TP + FP): (82.8%)
  Negative PyL Scan: (3.2%)
  PPV (TP/TP + FP): (93.3%)
  Positive PyL Scan: (96.8%)
[4]
  CLR (TP/TP + FP): (80.8%)
  Negative PyL Scan: (9.7%)
  PPV (TP/TP + FP): (92.9%)
  Positive PyL Scan: (90.3%)
SOT MRI n=23, Reader 1
  CLR (TP/TP + FP): (80.0%)
  Negative PyL Scan: (30.4%)
  Positive PyL Scan: (69.6%)
SOT MRI n=23, Reader 2
  CLR (TP/TP + FP): (86.7%)
  Negative PyL Scan: (30.4%)
  Positive PyL Scan: (69.6%)
SOT MRI n=23, Reader 3
  CLR (TP/TP + FP): (86.7%)
  Negative PyL Scan: (30.4%)
  Positive PyL Scan: (69.6%)
[5]
  CLR (TP/TP + FP): (90.9%)
  Negative PyL Scan: (14.1%)
  Positive PyL Scan: (85.9%)
[6]
  CLR (TP/TP + FP): (90.0%)
  Negative PyL Scan: (23.9%)
  Positive PyL Scan: (76.1%)
[7]
  CLR (TP/TP + FP): (86.8%)
  Negative PyL Scan: (19.7%)
  Positive PyL Scan: (80.3%)
SOT PSA response n=1, Reader 1
  CLR (TP/TP + FP): (100%)
  Negative PyL Scan: (0.0%)
  PPV (TP/TP + FP): (100%)
  Positive PyL Scan: (100%)
SOT PSA response n=1, Reader 2
  CLR (TP/TP + FP): (100%)
  Negative PyL Scan: (0.0%)
  PPV (TP/TP + FP): (100%)
  Positive PyL Scan: (100%)
SOT PSA response n=1, Reader 3
  CLR (TP/TP + FP): (100%)
  Negative PyL Scan: (0.0%)
  PPV (TP/TP + FP): (100%)
  Positive PyL Scan: (100%)
All patients n=208, Reader 1
  CLR (TP/TP + FP): (85.6%)
  Negative PyL Scan: (34.1%)
  Positive PyL Scan: (65.9%)
All patients n=208, Reader 2
  CLR (TP/TP + FP): (87.0%)
  Negative PyL Scan: (40.4%)
  Positive PyL Scan: (59.6%)
All patients n=208, Reader 3
  CLR (TP/TP + FP): (84.8%)
  Negative PyL Scan: (40.9%)
  Positive PyL Scan: (59.1%)
Baseline PSA <0.5 ng/mL
  lesion detection rate: 36.2%
  median CLR: 73.3%
Baseline PSA ≥5 ng/mL
  lesion detection rate: 96.7%
  median CLR: 96.4%
CONDOR Reader 4
  PPV % (95% CI): 90%
CONDOR Reader 5
  PPV % (95% CI): 91%
CONDOR Reader 6
  PPV % (95% CI): 89%
Patients with PSA 0.2 to <2.0 ng/mL
  CLR: > 73%
person, PSA 1.27 ng/mL, confirmed by contrast-MRI
  PET/CT finding, case study 2: lumbar spine metastasis
person, PSA 1.92 ng/mL, confirmed by pathology
  PET/CT finding, case study 1: L common iliac and multiple retroperitoneal lymph node lesions
person, PSA 1.78, confirmed by biopsy
  PET/CT finding, case study 3: a thoracic spine lesion
